According to ChEMBL document CHEMBL3885861, “Open TG-GATES”:

Species: Rattus norvegicus
Assay: Open TG-GATES - Regimen: Daily Repeat
Format: toxicity, organism-based, Sprague-Dawley
Design: regimen Daily Repeat, gender Male, age 6 weeks
Conditions: in vivo, po, route gavage; for APTT / Bas / Eos / Fbg / Hb / Ht / Lym / MCH / MCHC / MCV / Mono / Neu / RBC / Ret / WBC / Plat / PT: tissue Blood; for KIDNEY_L / KIDNEY_R / KIDNEY_TOTAL: tissue Kidney; for ALP / ALT / AST / BUN / CRE / Ca / Cl / DBIL / GLC / IP / K / LDH / Na / PL / RALB / TBIL / TC / TG / TP / gamma-GTP: tissue Plasma
[1] = 150 mg/kg, 72 h, dose level Middle, time 3 day
[2] = 150 mg/kg, […], dose level Middle, time 7 day
[3] = 150 mg/kg, […], dose level Middle, time 14 day
[4] = 150 mg/kg, […], dose level Middle, time 28 day
[5] = 450 mg/kg, 72 h, dose level High, time 3 day
[6] = 450 mg/kg, […], dose level High, time 7 day
[7] = 450 mg/kg, […], dose level High, time 14 day
[8] = 450 mg/kg, […], dose level High, time 28 day

## CC(=O)Oc1ccccc1C(=O)O [ASPIRIN]
[1]
  APTT: 19 s
  Bas: 0%
  Eos: 1%
  Fbg: 227.8 mg/dL
  Hb: 13.4 g/dL
  Ht: 39.3%
  Lym: 80.8%
  MCH: 21.4 pg
  MCHC: 34.1%
  MCV: 62.7 fL
  Mono: 2.8%
  Neu: 14.4%
  RBC: 627.2 x10_4/ul
  Ret: 5.9%
  WBC: 108.2 x10_2/uL
  KIDNEY_L: 1.1 g
  KIDNEY_R: 1.1 g
  KIDNEY_TOTAL: 2.1 g
  ALP: 924.6 IU/L
  ALT: 33.4 IU/L
  AST: 68.4 IU/L
  BUN: 12.2 mg/dL
  CRE: 0.4 mg/dL
  Ca: 10.6 mg/dL
  Cl: 102.4 meq/L
  DBIL: 0.078 mg/dL
  GLC: 196.6 mg/dL
  IP: 7 mg/dL
  K: 3.7 meq/L
  LDH: 210.2 IU/L
  Na: 141 meq/L
  PL: 155.8 mg/dL
  RALB: 3.4 g/dL
  TBIL: 0.1 mg/dL
  TC: 73.8 mg/dL
  TG: 117.6 mg/dL
  TP: 5.6 g/dL
  gamma-GTP: 1 IU/L
[2]
  TERMINAL_BW: 268.1 g
  APTT: 19.3 s
  Bas: 0%
  Eos: 1%
  Fbg: 216 mg/dL
  Hb: 14 g/dL
  Ht: 41.1%
  Lym: 82.4%
  MCH: 20.8 pg
  MCHC: 34%
  MCV: 61.3 fL
  Mono: 2.4%
  Neu: 13.2%
  Plat: 119 x10_4/uL
  RBC: 671 x10_4/ul
  Ret: 4.7%
  WBC: 119.6 x10_2/uL
  KIDNEY_L: 1.2 g
  KIDNEY_R: 1.2 g
  KIDNEY_TOTAL: 2.3 g
  ALP: 901.8 IU/L
  ALT: 35 IU/L
  AST: 66.8 IU/L
  BUN: 16 mg/dL
  CRE: 0.4 mg/dL
  Ca: 10.4 mg/dL
  Cl: 102.4 meq/L
  DBIL: 0.094 mg/dL
  GLC: 211.6 mg/dL
  IP: 8.5 mg/dL
  K: 4 meq/L
  LDH: 222.2 IU/L
  Na: 141 meq/L
  PL: 158.4 mg/dL
  RALB: 3.2 g/dL
  TBIL: 0.1 mg/dL
  TC: 71.8 mg/dL
  TG: 153.4 mg/dL
  TP: 5.4 g/dL
  gamma-GTP: 0.6 IU/L
[3]
  TERMINAL_BW: 320.9 g
  APTT: 19.5 s
  Bas: 0%
  Eos: 1.8%
  Fbg: 204.8 mg/dL
  Hb: 14.9 g/dL
  Ht: 42.1%
  Lym: 77.6%
  MCH: 21.1 pg
  MCHC: 35.3%
  MCV: 59.7 fL
  Mono: 2.8%
  Neu: 17.2%
  Plat: 125.3 x10_4/uL
  RBC: 704.8 x10_4/ul
  Ret: 3.5%
  WBC: 156.5 x10_2/uL
  KIDNEY_L: 1.3 g
  KIDNEY_R: 1.3 g
  KIDNEY_TOTAL: 2.6 g
  ALP: 825.8 IU/L
  ALT: 36.8 IU/L
  AST: 77 IU/L
  BUN: 14.6 mg/dL
  CRE: 0.4 mg/dL
  Ca: 10.4 mg/dL
  Cl: 102.2 meq/L
  DBIL: 0.092 mg/dL
  GLC: 187.4 mg/dL
  IP: 8 mg/dL
  K: 4.2 meq/L
  LDH: 252 IU/L
  Na: 141.6 meq/L
  PL: 158.6 mg/dL
  RALB: 3.3 g/dL
  TBIL: 0.1 mg/dL
  TC: 72.4 mg/dL
  TG: 151.4 mg/dL
  TP: 5.5 g/dL
  gamma-GTP: 0.8 IU/L
[4]
  TERMINAL_BW: 404.7 g
  APTT: 21.3 s
  Bas: 0%
  Eos: 1.4%
  Fbg: 205.4 mg/dL
  Hb: 15.4 g/dL
  Ht: 44.6%
  Lym: 80.2%
  MCH: 19.6 pg
  MCHC: 34.6%
  MCV: 56.7 fL
  Mono: 2.4%
  Neu: 14.6%
  Plat: 108.6 x10_4/uL
  RBC: 789.2 x10_4/ul
  Ret: 2.2%
  WBC: 108.6 x10_2/uL
  KIDNEY_L: 1.5 g
  KIDNEY_R: 1.5 g
  KIDNEY_TOTAL: 3 g
  ALP: 641.6 IU/L
  ALT: 35.8 IU/L
  AST: 81.4 IU/L
  BUN: 16.2 mg/dL
  CRE: 0.5 mg/dL
  Ca: 10.2 mg/dL
  Cl: 102.8 meq/L
  DBIL: 0.1 mg/dL
  GLC: 229.2 mg/dL
  IP: 7.3 mg/dL
  K: 3.8 meq/L
  LDH: 193 IU/L
  Na: 142.2 meq/L
  PL: 149.8 mg/dL
  RALB: 3.4 g/dL
  TBIL: 0.2 mg/dL
  TC: 69.4 mg/dL
  TG: 148.8 mg/dL
  TP: 5.8 g/dL
  gamma-GTP: 0.6 IU/L
[5]
  TERMINAL_BW: 232.1 g
  APTT: 24.9 s
  Bas: 0%
  Eos: 0.4%
  Fbg: 212.4 mg/dL
  Hb: 13.5 g/dL
  Ht: 39.3%
  Lym: 81.4%
  MCH: 21.4 pg
  MCHC: 34.2%
  MCV: 62.5 fL
  Mono: 2%
  Neu: 14.8%
  PT: 14.1 s
  Plat: 122.2 x10_4/uL
  RBC: 630 x10_4/ul
  Ret: 4.7%
  WBC: 126.2 x10_2/uL
  KIDNEY_L: 1.1 g
  KIDNEY_R: 1.1 g
  KIDNEY_TOTAL: 2.2 g
  ALP: 880.2 IU/L
  ALT: 47 IU/L
  AST: 82.4 IU/L
  BUN: 14.8 mg/dL
  CRE: 0.4 mg/dL
  Ca: 11.2 mg/dL
  Cl: 103 meq/L
  DBIL: 0.1 mg/dL
  GLC: 188 mg/dL
  IP: 7.1 mg/dL
  K: 3.7 meq/L
  LDH: 233.4 IU/L
  Na: 142.2 meq/L
  PL: 147.2 mg/dL
  RALB: 3.3 g/dL
  TBIL: 0.2 mg/dL
  TC: 62.2 mg/dL
  TG: 187 mg/dL
  TP: 5.5 g/dL
  gamma-GTP: 1.4 IU/L
[6]
  TERMINAL_BW: 257.1 g
  APTT: 22.6 s
  Bas: 0%
  Eos: 0.8%
  Fbg: 210.2 mg/dL
  Hb: 13.3 g/dL
  Ht: 39.6%
  Lym: 81.6%
  MCH: 21.2 pg
  MCHC: 33.7%
  MCV: 63 fL
  Mono: 2.2%
  Neu: 14%
  PT: 13.6 s
  Plat: 111.3 x10_4/uL
  RBC: 629.4 x10_4/ul
  Ret: 7.9%
  WBC: 159.1 x10_2/uL
  KIDNEY_L: 1.1 g
  KIDNEY_R: 1.1 g
  KIDNEY_TOTAL: 2.3 g
  ALP: 1005.2 IU/L
  ALT: 51.6 IU/L
  AST: 102.4 IU/L
  BUN: 16.8 mg/dL
  CRE: 0.5 mg/dL
  Ca: 11 mg/dL
  Cl: 102.4 meq/L
  DBIL: 0.1 mg/dL
  GLC: 207.4 mg/dL
  IP: 7.4 mg/dL
  K: 4.1 meq/L
  LDH: 248.2 IU/L
  Na: 142 meq/L
  PL: 158.6 mg/dL
  RALB: 3.4 g/dL
  TBIL: 0.2 mg/dL
  TC: 66.8 mg/dL
  TG: 182.4 mg/dL
  TP: 5.3 g/dL
  gamma-GTP: 1.2 IU/L
[7]
  TERMINAL_BW: 301.6 g
  APTT: 22.1 s
  Bas: 0%
  Eos: 1%
  Fbg: 210 mg/dL
  Hb: 14.5 g/dL
  Ht: 41.5%
  Lym: 78.6%
  MCH: 21.3 pg
  MCHC: 34.9%
  MCV: 61.1 fL
  Mono: 2.6%
  Neu: 16.4%
  PT: 13 s
  Plat: 125.9 x10_4/uL
  RBC: 679.8 x10_4/ul
  Ret: 4.7%
  WBC: 146.8 x10_2/uL
  KIDNEY_L: 1.3 g
  KIDNEY_R: 1.3 g
  KIDNEY_TOTAL: 2.5 g
  ALP: 871 IU/L
  ALT: 46.2 IU/L
  AST: 92.8 IU/L
  BUN: 16.4 mg/dL
  CRE: 0.5 mg/dL
  Ca: 10.8 mg/dL
  Cl: 101.4 meq/L
  DBIL: 0.1 mg/dL
  GLC: 175.8 mg/dL
  IP: 7.6 mg/dL
  K: 4.4 meq/L
  LDH: 312 IU/L
  Na: 141.2 meq/L
  PL: 170.6 mg/dL
  RALB: 3.3 g/dL
  TBIL: 0.2 mg/dL
  TC: 65.6 mg/dL
  TG: 250.6 mg/dL
  TP: 5.4 g/dL
  gamma-GTP: 0.8 IU/L
[8]
  TERMINAL_BW: 356.2 g
  APTT: 23.9 s
  Bas: 0%
  Eos: 1%
  Fbg: 194.2 mg/dL
  Hb: 14.9 g/dL
  Ht: 43.2%
  Lym: 76.6%
  MCH: 20.1 pg
  MCHC: 34.5%
  MCV: 58.2 fL
  Mono: 2.6%
  Neu: 18.8%
  PT: 14 s
  Plat: 90.2 x10_4/uL
  RBC: 746.6 x10_4/ul
  Ret: 3.3%
  WBC: 115.2 x10_2/uL
  KIDNEY_L: 1.3 g
  KIDNEY_R: 1.4 g
  KIDNEY_TOTAL: 2.7 g
  ALP: 771.8 IU/L
  ALT: 40.6 IU/L
  AST: 85.6 IU/L
  BUN: 18.4 mg/dL
  CRE: 0.5 mg/dL
  Ca: 10.3 mg/dL
  Cl: 102.6 meq/L
  DBIL: 0.094 mg/dL
  GLC: 204.4 mg/dL
  IP: 6.5 mg/dL
  K: 4 meq/L
  LDH: 179 IU/L
  Na: 141.8 meq/L
  PL: 146.6 mg/dL
  RALB: 3.4 g/dL
  TBIL: 0.2 mg/dL
  TC: 58.2 mg/dL
  TG: 172.4 mg/dL
  TP: 5.2 g/dL
  gamma-GTP: 1 IU/L
